Earlier results on two compounds are cited in patent publication US9522876B2, “Cytotoxic and anti-mitotic compounds, and methods of using the same” (ZYMEWORKS INC., priority 2013, dated 2016).

The subject of this data set is cells. The conditions noted are these: related art.

As to `CN[C@H](C(=O)N[C@H](C(=O)N(C)[C@H](/C=C(\C)C(=O)O)C(C)C)C(C)(C)C)C(C)(C)c1cn(C)c2ccccc12` [hemiasterlin], the anti-mitotic activity entry is “causes microtubule depolymerization and mitotic arrest in cells”.
Regarding `CN[C@H](C(=O)N[C@H](C(=O)N(C)[C@H](/C=C(\C)C(=O)O)C(C)C)C(C)(C)C)C(C)(C)c1ccccc1` [HT1-286], the anti-mitotic activity result was “potent anti-mitotic activity”.
